Laboratory results reported in publication PMC10564737, “Structure-based design of a phosphotyrosine-masked covalent ligand targeting the E3 ligase SOCS2” (Nature Communications, 2023).
Several values for one entry are separate records, joined by “and”; a condition that tells them apart may be missing. Identical values can stand only once.

Assays:
SBC2 [1] = molecular target: T1, SBC2 (Homo sapiens, UniProt O14508); assay: Surface plasmon resonance (SPR) with SBC2 immobilized on the chip; format: binding; conditions: for Kd: Table 2, second-round library, n = 1
T1 construct: SOCS2 (amino acids 32–198); His6 (N, cleaved yes); made in house; host or cells: E. coli BL21(DE3)
T1 sequence (O14508 32-198): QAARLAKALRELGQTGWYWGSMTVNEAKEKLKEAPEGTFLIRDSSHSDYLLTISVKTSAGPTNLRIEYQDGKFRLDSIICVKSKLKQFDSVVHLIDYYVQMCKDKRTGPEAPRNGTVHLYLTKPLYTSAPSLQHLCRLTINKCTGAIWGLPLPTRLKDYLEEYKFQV
T1 sequence (Q15370 1-104 partner limits assumed): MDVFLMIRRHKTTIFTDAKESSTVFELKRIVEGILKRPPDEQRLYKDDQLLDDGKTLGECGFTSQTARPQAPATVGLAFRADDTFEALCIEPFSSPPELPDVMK
T1 sequence (Q15369 17-112 partner limits assumed): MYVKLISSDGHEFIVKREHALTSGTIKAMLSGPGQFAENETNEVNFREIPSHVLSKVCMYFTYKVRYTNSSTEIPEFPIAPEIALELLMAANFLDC
Excerpt: First, we decided to optimize the N-terminal region of 1 while maintaining the N-methylamide group at the C-terminus. To generate analogs rapidly, we employed a solid phase synthesis using methyl indole AM resin. After Fmoc deprotection, the resin was loaded with Fmoc-Tyr (PO(OBzl)2)-OH[29]. Subsequent coupling with various commercially available carboxylic acids and cleavage with TFA allowed the rapid synthesis of N-methylcarboxamide phosphotyrosines (Supplementary Fig. 1). We introduced different substituents at the N-terminus to cover a range of physicochemical properties (e.g. alicyclic, heterocyclic, aromatic with electron-withdrawing and electron-donating groups) to maximize potential interactions (see Table 1 for representative examples). Binding affinities of the synthesized compounds for SOCS2 were measured via two orthogonal biophysical binding assays: (1) surface plasmon resonance (SPR) with SBC2 immobilized on the chip (Supplementary Fig. 7); and (2) ^19F ligand-observed displacement NMR assays, providing two orthogonal biophysical measurements of dissociation constants (KD)[29],[31]. We found an excellent correlation between the KD values measured via the two techniques (Table 1). Para-substituted benzyl moieties yielded the greatest contributions to binding affinity and there were only slight differences between electron-withdrawing groups such as a methyl ester and electron-donating such as methoxy group.
SPR experiments were performed using a Biacore S200 instrument (GE Healthcare) in 20 mM HEPES pH 7.5, 150 mM NaCl, 1 mM TCEP, 0.005% Tween20, 2% DMSO buffer at 10 °C. Biotinylated SBC2 was immobilized onto a chip surface (the final surface density of biotinylated SBC2 was ~3000–4000 RU). AviTagged-SBC was biotinylated using BirA enzyme as per manufacturer’s protocol (Avidity). Compounds were serially diluted in the running buffer and injected individually: contact time 60 s, flow rate 30 μL/min, dissociation time 150 s, using a stabilization period of 30 s and syringe wash (50% DMSO) between injections. Data analysis was carried out using Biacore Evaluation Software (GE Healthcare). All data were double-referenced for reference surface and blank injection. The processed sensograms were fit to a steady-state affinity using a 1:1 binding model for KD estimation.

SBC2 [2] = molecular target: T1, SBC2; assay: Isothermal titration calorimetry (ITC), direct titration; format: binding; conditions: for Kd: ITC KD, direct ITC, 298 K
Procedure: Experiments were performed with ITC200 instrument (Malvern) in 100 mM HEPES pH 7.5, 50 mM NaCl, 0.5 mM TCEP at 298 K. The ITC titration consisted of 0.4 μl initial injection (discarded during data analysis) followed by 19 of 2 μl injections at 120 s interval between injections. 1 mM of the ligands in 2–4% DMSO were titrated into 100 μM SBC2. […] Binding data was subtracted from a control titration where ligand was titrated into buffer, and fitted using a one-set-of-site binding model to obtain dissociation constant (Kd), binding enthalpy (ΔH), and stoichiometry (N) using MicroCal PEAQ-ITC Analysis Software1.1.0.1262 and MicroCal ITC-ORIGIN Analysis Software 7.0 (Malvern).

[3] = molecular target: T2, HiBiT-SOCS2 fusion in HeLa cells (Homo sapiens, UniProt O14508); assay: Split-NanoLuc CETSA, live-cell mode; format: cell-based; design: Produrg CETSA screening, raw signal: reference not given here; conditions: for Produrg CETSA screening, raw signal: 50uM 20hrs
T2 construct: encoding SOCS2 (32–198) in pBiT3.1-N expression vector; expressed in transfected cells; host or cells: HeLa
T2 sequence (O14508 32-198): as the sequence (O14508 32-198) above
T2 sequence (Q15370 whole entry, further chain, the tested form may be a part): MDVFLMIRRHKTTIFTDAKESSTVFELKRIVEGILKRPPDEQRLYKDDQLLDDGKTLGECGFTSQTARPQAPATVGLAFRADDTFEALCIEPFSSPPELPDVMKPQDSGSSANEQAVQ
T2 sequence (Q15369 whole entry, further chain, the tested form may be a part): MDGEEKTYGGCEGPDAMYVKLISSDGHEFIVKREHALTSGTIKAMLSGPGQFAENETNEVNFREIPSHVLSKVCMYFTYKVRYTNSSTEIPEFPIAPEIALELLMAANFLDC
Procedure: One of the challenges with small-molecule binders displaying on-target activity with recombinant proteins, is to translate their utility to a cellular context. […] One of the advantages of CETSA is that target engagement can be monitored without the need for the development of a cell-permeable tracer molecule.
We utilized CETSA in a live-cell mode to evaluate the efficacy and rank the different prodrugs. We treated live HeLa cells with 50 μM compound (prodrugs) for 20 h and monitored Tagg shift as a proxy for the combo of prodrug permeability and unmasking (Fig. 4d). […] The observation could be because the POM group unmasking requires only esterase unlike the reliance of compounds 21–23 on esterase and phosphoramidase for unmasking an aryloxy phosphoramidate group.
N-terminal HiBiT-SOCS2 fusion was generated by encoding SOCS2 (32–198) in pBiT3.1-N expression vector (Promega). The transfection and target engagement assay were performed by modifying a NanoLuc target engagement protocol (Promega) with some small modifications. Briefly, HiBiT-SOCS2 fusion construct was transfected into HeLa cells using FuGENE HD (Promega) according to the manufacturer’s protocol. HiBiT-SOCS2 fusion construct was diluted into Transfection Carrier DNA (Promega) at a mass ratio of 1:100 or 1:10 for permeabilised and live-cell CETSA respectively. FuGENE HD was added at a ratio of 1:3 (μg DNA: μL FuGENE HD). 1 part (vol) of FuGENE HD complexes thus formed were combined with 20 parts (vol) of HeLa cells suspended at a density of 2 × 10^5 cells/mL, followed by incubation in a humidified, 37 °C + 5% CO2 incubator. After 20 h of incubation HeLa cells were detached and resuspended at a density of 2.5 × 10^5 cells/mL in Opti-MEM media without serum or phenol red but supplemented with protease inhibitor cocktail (Roche). Compounds stocks were added to cell suspension to maintain a final DMSO concentration of 1%. For the permeabilised assay format, 96-well PCR plates (Thermo) were pre-treated with digitonin to have a final well concentration of 50 μg/ml. 50 μl Opti-MEM cell suspension was then aliquoted to each well of the 96-well plate. The plates are then covered with microporous tape sheet (Qiagen) prior to incubation in a humidified, 37 °C + 5% CO2 incubator. Post-incubation we heat the PCR plates in 16-point temperature (split across two runs) curve spanning degrees 40-72 °C temperature span (CFX96 Touch Real-Time PCR Detection System, BioRad). The thermal cycler block was allowed to rise to the designated temperatures prior to placement of the PCR plates into the heating block and heat treatment for 3 min. After incubating the plates at room temperature for over 3 min, 50 μl of the Nano-Glo HiBiT Lytic mix (Promega) was added to each well. Samples were mixed by pipetting and placing the plate on an orbital shaker (600 rpm) for 5 min. 20 μl of the samples (in triplicates) were transferred to a AlphaPlate-384 plate (Perkin Elmer). Luminescence was recorded with GloMax Discover Microplate Reader (Promega). To generate apparent Tagg curves, the data is first converted to percent stabilized by relating the observed luminescence to the luminescence of the lowest temperature (40 °C) for that given sample. Data are then fitted to obtain apparent Tagg values using the Boltzmann Sigmoid equation using Graphpad Prism 9.

Cc1cc(CNC(=O)[C@H](Cc2ccc(OP(=O)(O)O)cc2)NC(=O)Cc2ccc(F)cc2)ccc1F [Compound 11, (S)-4-(3-((4-fluoro-3-methylbenzyl)amino)-2-(2-(4-fluorophenyl)acetamido)-3-oxopropyl)phenyl phosphate]
Kd (SBC2 [1]): 2700 nM | ITC ΔG (SBC2 [2]): -8.23 kcal/mol | ITC ΔH (SBC2 [2]): -5.25 kcal/mol | ITC −TΔS (SBC2 [2]): -2.98 kcal/mol | Kd (SBC2 [2]): 1000 nM

O=C(Cc1ccc(F)cc1)N[C@@H](Cc1ccc(OP(=O)(O)O)cc1)C(=O)NCc1ccc(F)cc1 [Compound 9, (S)-4-(3-((4-fluorobenzyl)amino)-2-(2-(4-fluorophenyl)acetamido)-3-oxopropyl)phenyl phosphate]
improvement of binding affinity compared to 5 (SBC2 [1]; SPR): 10 fold | Kd (SBC2 [1]): 4200 nM | ITC ΔG (SBC2 [2]): -7.65 kcal/mol | ITC −TΔS (SBC2 [2]): -3.55 kcal/mol | Kd (SBC2 [2]): 2600 nM

C=CCc1cccc(CNC(=O)[C@H](Cc2ccc(OP(=O)(O)O)cc2)NC(=O)Cc2ccc(F)cc2)c1 [Compound 14, (S)-4-(3-((3-allylbenzyl)amino)-2-(2-(4-fluorophenyl)acetamido)-3-oxopropyl)phenyl phosphate]
Kd (SBC2 [1]): 2400 nM | ITC ΔG (SBC2 [2]): -8.61 kcal/mol | ITC ΔH (SBC2 [2]): -6.31 kcal/mol | ITC −TΔS (SBC2 [2]): -2.26 kcal/mol | Kd (SBC2 [2]): 480 nM

CCc1cc(CNC(=O)[C@H](Cc2ccc(OP(=O)(O)O)cc2)NC(=O)Cc2ccc(F)cc2)ccc1F [Compound 12, (S)-4-(3-((3-ethyl-4-fluorobenzyl)amino)-2-(2-(4-fluorophenyl)acetamido)-3-oxopropyl)phenyl phosphate]
Kd (SBC2 [1]): 2200 nM | ITC ΔG (SBC2 [2]): -8.59 kcal/mol | ITC ΔH (SBC2 [2]): -8.16 kcal/mol | ITC −TΔS (SBC2 [2]): -0.43 kcal/mol | Kd (SBC2 [2]): 500 nM and 510 nM

C[C@H](NP(=O)(Oc1ccc(C[C@H](NC(=O)Cc2ccc(F)cc2)C(=O)NCc2cccc(NC(=O)CCl)c2)cc1)Oc1cccc2ccccc12)C(=O)OCc1ccccc1 (some centres unmarked) [Compound 23]
Produrg CETSA screening, raw signal ([3]; n=1, temperature point 5 of 16, temperature not given): 69363 and 80806 and 112884 | Produrg CETSA screening, raw signal ([3]; n=1, temperature point 6 of 16, temperature not given): 96967 and 118352 and 144445 | Produrg CETSA screening, raw signal ([3]; n=1, temperature point 7 of 16, temperature not given): 143643 and 166973 and 192783 | Produrg CETSA screening, raw signal ([3]; n=1, temperature point 8 of 16, temperature not given): 106216 and 128406 and 210436 | Produrg CETSA screening, raw signal ([3]; n=1, temperature point 9 of 16, temperature not given): 167377 and 176709 and 206363 | Produrg CETSA screening, raw signal ([3]; n=1, temperature point 10 of 16, temperature not given): 186703 and 236478 and 300868 | Produrg CETSA screening, raw signal ([3]; n=1, temperature point 11 of 16, temperature not given): 231104 and 290174 and 305287 | Produrg CETSA screening, raw signal ([3]; n=1, temperature point 12 of 16, temperature not given): 354321 and 369048 and 401655 | Produrg CETSA screening, raw signal ([3]; n=1, temperature point 13 of 16, temperature not given): 341517 and 349800 and 466508 | Produrg CETSA screening, raw signal ([3]; n=1, temperature point 14 of 16, temperature not given): 353173 and 365195 and 397047 | Produrg CETSA screening, raw signal ([3]; n=1, temperature point 15 of 16, temperature not given): 381815 and 407106 and 448233 | Produrg CETSA screening, raw signal ([3]; n=1, temperature point 16 of 16, temperature not given): 423512 and 424780 and 453391 | Produrg CETSA screening, raw signal ([3]; n=2, temperature point 1 of 16, temperature not given): 81542 and 84696 and 155298 | Produrg CETSA screening, raw signal ([3]; n=2, temperature point 2 of 16, temperature not given): 72558 and 139894 and 123324 | Produrg CETSA screening, raw signal ([3]; n=2, temperature point 5 of 16, temperature not given): 87834 and 139601 and 100567 | Produrg CETSA screening, raw signal ([3]; n=2, temperature point 6 of 16, temperature not given): 98775 and 175976 and 137381 | Produrg CETSA screening, raw signal ([3]; n=2, temperature point 7 of 16, temperature not given): 152633 and 181253 and 191364 | Produrg CETSA screening, raw signal ([3]; n=2, temperature point 8 of 16, temperature not given): 176015 and 229873 and 213107 | Produrg CETSA screening, raw signal ([3]; n=2, temperature point 9 of 16, temperature not given): 189127 and 214945 and 246245 | Produrg CETSA screening, raw signal ([3]; n=2, temperature point 10 of 16, temperature not given): 212633 and 267460 and 262658 | Produrg CETSA screening, raw signal ([3]; n=2, temperature point 11 of 16, temperature not given): 244590 and 322245 and 338306 | Produrg CETSA screening, raw signal ([3]; n=2, temperature point 12 of 16, temperature not given): 338485 and 407495 and 420421 | Produrg CETSA screening, raw signal ([3]; n=2, temperature point 13 of 16, temperature not given): 375692 and 455999 and 437696 | Produrg CETSA screening, raw signal ([3]; n=2, temperature point 14 of 16, temperature not given): 432064 and 448169 and 475813 | Produrg CETSA screening, raw signal ([3]; n=2, temperature point 15 of 16, temperature not given): 397604 and 474479 and 457905 | Produrg CETSA screening, raw signal ([3]; n=2, temperature point 16 of 16, temperature not given): 400496 and 479946 and 527841 | Produrg CETSA screening, raw signal ([3]; n=3, Temp, 0C 54.1): 44604 | Produrg CETSA screening, raw signal ([3]; n=3, Temp, 0C 55): 39796 and 47150 and 51627 | Produrg CETSA screening, raw signal ([3]; n=3, Temp, 0C 56): 45790 and 51042 and 62078 | Produrg CETSA screening, raw signal ([3]; n=3, Temp, 0C 57.1): 31202 and 38155 and 39301 | Produrg CETSA screening, raw signal ([3]; n=3, Temp, 0C 59.2): 28243 and 27436 and 39233 | Produrg CETSA screening, raw signal ([3]; n=3, Temp, 0C 62.3): 17330 and 19655 and 29378 | Produrg CETSA screening, raw signal ([3]; n=3, Temp, 0C 66.1): 14860 and 24999 and 29256 | Produrg CETSA screening, raw signal ([3]; n=3, Temp, 0C 71.1): 14600 and 19386 and 22788 | ΔT ([3]; Prodrug screen CETSA, live HeLa cells, 50 μM, 20 h, Mean n = 3): 2.28 oC | ΔT, individual replicates n1-n3 ([3]; Prodrug screen CETSA, single replicates): 0.90 oC and 3.19 oC and 2.74 oC
